pKi: −log10 of the molar value.
Key:
ACHN = assay: NCI-60 single-dose antiproliferative assay (SRB); type: cell-based; conditions: Homo sapiens, 10 μM single dose, Renal cancer, read-out: Cell Growth inhibition Percent
Protocol: (§1) From the newly synthesized compounds, eleven compounds (4c, 4d, 5, 9a, 9b, 11a, 11b, 13b, 13c, 15b, and 15c) were selected by the National Cancer Institute (NCI) Developmental Therapeutics Program (DTP), Bethesda, Maryland, USA for the in vitro anti-proliferative activity evaluation. The selected compounds were examined at 10 μM dose against the NCI 60-cell line panel. This panel consists of nine cell line groups of leukemia, non-small cell lung carcinoma (NSCLC), melanoma, colon, CNS, ovarian, renal, prostate, and breast cancers. The results are reported as mean-graph of the percent growth relative to control and presented as percentage growth inhibition (GI%), furthermore, mean GI% of each compound over all panel cell lines was calculated (Table 1; Additional file 1; S3: In vitro biological activity).
(§2) From the newly synthesized compounds, eleven compounds were selected by the National Cancer Institute (NCI) Developmental Therapeutics Program (DTP), Bethesda, Maryland, USA for the in vitro anti-proliferative activity evaluation (For further details see supplementary materials).
(§3) NCI In-vitro Cancer Screening is a two-phase procedure that starts with the assessment of all compounds against the sixty NCI cell line panel depicting leukemia, NSCLC, CNS cancer, melanoma, prostate cancer, breast cancer, renal cancer, colon cancer and ovarian cancer cell lines at a single point of 10μM. The output from the single-dose screen is reportable as a mean graph.
(§4) The human tumor cell lines of the cancer screening panel were grown in RPMI 1640 medium containing 5% fetal bovine serum and 2 mM L-glutamine. For a typical screening experiment, cells were inoculated into 96 well microtiter plates in […] at plating densities ranging from 5000 to 40,000 cells/well depending on the doubling time of individual cell lines. After cell inoculation, the microtiter plates were incubated at 37 °C, 5% CO2, 95% air and 100% relative humidity for 24 h prior to addition of experimental drugs. After 24 h, two plates of each cell line were fixed in situ with trichloroacetic acid (TCA), to represent a measurement of the cell population for each cell line at the time of drug addition (Tz). Experimental drugs were solubilized in dimethyl sulfoxide at 400-fold the desired final maximum test concentration and stored frozen prior to use. At the time of drug addition, an aliquot of frozen concentrate was thawed and diluted to twice the desired final maximum test concentration with complete medium containing 50 µg/ml gentamicin. Aliquot of 100 µl of the drug dilution was added to the appropriate microtiter wells already containing 100 µl of medium, resulting in the required final drug concentration (10 µM). Triplicate wells were prepared for each individual dose. Following drug addition, the plates were incubated for an additional 48 h at 37 °C, 5% CO2, 95% air, and 100% relative humidity. For adherent cells, the assay was terminated by the addition of cold TCA. Cells were fixed in situ by the gentle addition of 50 µl of cold 50% (w/v) TCA (final concentration, 10% TCA) and incubated for 60 min at 4 °C. The supernatant was discarded, and the plates were washed five times with tap water and air dried. Sulforhodamine B (SRB) solution (100 µl) at 0.4% (w/v) in 1% acetic acid was added to each well, and plates were incubated for 10 min at room temperature. After staining, unbound dye was removed by washing five times with 1% acetic acid and the plates were air dried. Bound stain was subsequently solubilized with 10 mM trizma base, and the absorbance was read on an automated plate reader at a wavelength of 515 nm. For suspension cells, the methodology was the same except that the assay was terminated by fixing settled cells at the bottom of the wells by gently adding 50 µl of 80% TCA (final concentration, 16% TCA). […]

MCF7 = assay: NCI-60 single-dose antiproliferative assay (SRB); type: cell-based; conditions: Homo sapiens; 10 μM single dose; MCF7, Breast cancer; read-out: Cell Growth inhibition Percent
Protocol: as §1, §2, §3, §4

SNB-75 = assay: NCI-60 single-dose antiproliferative assay (SRB); type: cell-based; conditions: Homo sapiens; 10 μM single dose; SNB-75, CNS cancer; read-out: Cell Growth inhibition Percent
Protocol: as §1, §2, §3, §4

HOP-62 = assay: NCI-60 single-dose antiproliferative assay (SRB); type: cell-based; conditions: Homo sapiens; 10 μM single dose; HOP-62, Non-small cell lung cancer; read-out: Cell Growth inhibition Percent
Protocol: as §1, §2, §3, §4

CAKI-1 = assay: NCI-60 single-dose antiproliferative assay (SRB); type: cell-based; conditions: Homo sapiens; 10 μM single dose; CAKI-1, Renal cancer; read-out: Cell Growth inhibition Percent
Protocol: as §1, §2, §3, §4

NCI-H522 = assay: NCI-60 single-dose antiproliferative assay (SRB); type: cell-based; conditions: Homo sapiens; 10 μM single dose; NCI-H522, Non-small cell lung cancer; read-out: Cell Growth inhibition Percent
Protocol: as §1, §2, §3, §4

OVCAR-8 = assay: NCI-60 single-dose antiproliferative assay (SRB); type: cell-based; conditions: Homo sapiens; 10 μM single dose; OVCAR-8, Ovarian Cancer; read-out: Cell Growth inhibition Percent
Protocol: as §1, §2, §3, §4

HOP-92 = assay: NCI-60 single-dose antiproliferative assay (SRB); type: cell-based; conditions: Homo sapiens; 10 μM single dose; HOP-92, Non-small cell lung cancer; read-out: Cell Growth inhibition Percent
Protocol: as §1, §2, §3, §4

UO-31 = assay: NCI-60 single-dose antiproliferative assay (SRB); type: cell-based, human; conditions: Homo sapiens, UO-31, 10 μM single dose; UO-31, Renal cancer; read-out: Cell Growth inhibition Percent
Protocol: as §1, §2, §3, §4

hCA XII = hCA XII (Homo sapiens, UniProt O43570); assay: Stopped flow CO2 hydrase assay
hCA IX = hCA IX (Homo sapiens, UniProt Q16790); assay: Stopped flow CO2 hydrase assay
hCA I = hCA I (Homo sapiens, UniProt P00915); assay: Stopped flow CO2 hydrase assay
hCA II = hCA II (Homo sapiens, UniProt P00918); assay: Stopped flow CO2 hydrase assay
KM12 = assay: NCI-60 single-dose antiproliferative assay (SRB); type: cell-based; conditions: Homo sapiens; 10 μM single dose; KM12, Colon cancer; read-out: Cell Growth inhibition Percent
Protocol: as §1, §2, §3, §4

MDA-MB-231/ATCC = assay: NCI-60 single-dose antiproliferative assay (SRB); type: cell-based; conditions: Homo sapiens, 10 μM single dose, Breast cancer, read-out: Cell Growth inhibition Percent
Protocol: as §1, §2, §3, §4

K-562 = assay: NCI-60 single-dose antiproliferative assay (SRB); type: cell-based; conditions: Homo sapiens, K562; 10 μM single dose; K-562, Leukemia; read-out: Cell Growth inhibition Percent
Protocol: as §1, §2, §3, §4

RPMI-8226 = assay: NCI-60 single-dose antiproliferative assay (SRB); type: cell-based; conditions: Homo sapiens; 10 μM single dose; RPMI-8226, Leukemia; read-out: Cell Growth inhibition Percent
Protocol: as §1, §2, §3, §4

SN12C = assay: NCI-60 single-dose antiproliferative assay (SRB); type: cell-based; conditions: Homo sapiens, 10 μM single dose, Renal cancer, read-out: Cell Growth inhibition Percent
Protocol: as §1, §2, §3, §4

T-47D = assay: NCI-60 single-dose antiproliferative assay (SRB); type: cell-based; conditions: Homo sapiens, T47D, 10 μM single dose, Breast cancer, read-out: Cell Growth inhibition Percent
Protocol: as §1, §2, §3, §4

A498 = assay: NCI-60 single-dose antiproliferative assay (SRB); type: cell-based; conditions: Homo sapiens; 10 μM single dose; A498, Renal cancer; read-out: Cell Growth inhibition Percent
Protocol: as §1, §2, §3, §4

HL-60(TB) = assay: NCI-60 single-dose antiproliferative assay (SRB); type: cell-based; conditions: Homo sapiens, 10 μM single dose, Leukemia, read-out: Cell Growth inhibition Percent
Protocol: as §1, §2, §3, §4

NCI-H23 = assay: NCI-60 single-dose antiproliferative assay (SRB); type: cell-based; conditions: Homo sapiens; 10 μM single dose; NCI-H23, Non-small cell lung cancer; read-out: Cell Growth inhibition Percent
Protocol: as §1, §2, §3, §4

SR = assay: NCI-60 single-dose antiproliferative assay (SRB); type: cell-based; conditions: Homo sapiens, 10 μM single dose, Leukemia, read-out: Cell Growth inhibition Percent
Protocol: as §1, §2, §3, §4

786-0 = assay: NCI-60 single-dose antiproliferative assay (SRB); type: cell-based; conditions: Homo sapiens; 10 μM single dose; 786-0, Renal cancer; read-out: Cell Growth inhibition Percent
Protocol: as §1, §2, §3, §4

SK-MEL-5 = assay: NCI-60 single-dose antiproliferative assay (SRB); type: cell-based; conditions: Homo sapiens; 10 μM single dose; SK-MEL-5, Melanoma; read-out: Cell Growth inhibition Percent
Protocol: as §1, §2, §3, §4

HCT-116 = assay: NCI-60 single-dose antiproliferative assay (SRB); type: cell-based; conditions: Homo sapiens; 10 μM single dose; HCT-116, Colon cancer; read-out: Cell Growth inhibition Percent
Protocol: as §1, §2, §3, §4

HCT-15 = assay: NCI-60 single-dose antiproliferative assay (SRB); type: cell-based; conditions: Homo sapiens; 10 μM single dose; HCT-15, Colon cancer; read-out: Cell Growth inhibition Percent
Protocol: as §1, §2, §3, §4

EKVX = assay: NCI-60 single-dose antiproliferative assay (SRB); type: cell-based; conditions: Homo sapiens, 10 μM single dose, Non-small cell lung cancer, read-out: Cell Growth inhibition Percent
Protocol: as §1, §2, §3, §4

NCI-H226 = assay: NCI-60 single-dose antiproliferative assay (SRB); type: cell-based; conditions: Homo sapiens; 10 μM single dose; NCI-H226, Non-small cell lung cancer; read-out: Cell Growth inhibition Percent
Protocol: as §1, §2, §3, §4

PC-3 = assay: NCI-60 single-dose antiproliferative assay (SRB); type: cell-based; conditions: Homo sapiens; 10 μM single dose; PC-3, Prostate cancer; read-out: Cell Growth inhibition Percent
Protocol: as §1, §2, §3, §4

Sequence of hCA I (P00915 whole entry): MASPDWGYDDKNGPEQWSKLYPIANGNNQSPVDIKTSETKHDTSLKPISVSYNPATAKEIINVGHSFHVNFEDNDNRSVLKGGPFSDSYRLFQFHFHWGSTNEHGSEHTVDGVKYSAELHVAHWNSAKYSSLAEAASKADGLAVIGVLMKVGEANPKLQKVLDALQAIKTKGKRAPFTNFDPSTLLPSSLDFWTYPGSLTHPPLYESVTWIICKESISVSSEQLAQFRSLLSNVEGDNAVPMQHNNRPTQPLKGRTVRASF
Sequence of hCA XII (O43570 25-354): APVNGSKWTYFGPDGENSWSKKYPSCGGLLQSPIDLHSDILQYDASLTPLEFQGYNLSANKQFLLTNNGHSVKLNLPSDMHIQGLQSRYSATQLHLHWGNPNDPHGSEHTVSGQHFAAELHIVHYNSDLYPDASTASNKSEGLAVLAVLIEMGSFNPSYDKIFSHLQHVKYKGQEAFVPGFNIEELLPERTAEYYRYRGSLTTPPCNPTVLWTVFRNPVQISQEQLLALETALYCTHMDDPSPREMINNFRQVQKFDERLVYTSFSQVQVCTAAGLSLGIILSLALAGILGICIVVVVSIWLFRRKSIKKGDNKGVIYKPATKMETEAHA

Row | Structure (SMILES) | inhibition at 10 µM (MCF7) [%] | inhibition at 10 µM (SNB-75) [%] | inhibition at 10 µM (HOP-62) [%] | inhibition at 10 µM (CAKI-1) [%] | inhibition at 10 µM (NCI-H522) [%] | inhibition at 10 µM (HOP-92) [%] | inhibition at 10 µM (UO-31) [%] | pKi (hCA XII) | pKi (hCA IX) | pKi (hCA I) | pKi (hCA II) | melting point [°C] | inhibition at 10 µM (KM12) [%] | inhibition at 10 µM (K-562) [%] | inhibition at 10 µM (SN12C) [%] | inhibition at 10 µM (T-47D) [%] | inhibition at 10 µM (NCI-H23) [%] | inhibition at 10 µM (SR) [%] | inhibition at 10 µM (SK-MEL-5) [%] | further results
1 | NS(=O)(=O)c1ccc(NC(=O)c2ccc(NC=C3C(=O)Nc4ccccc43)cc2)cc1 [Compound 9a, 4-{[(2-Oxoindolin-3-ylidene)methyl]amino}-N-(4-sulfamoylphenyl)benzamide] | 6.01 | 4.88 | 2.73 | 8.65 | 5.55 | 6.83 | 18 | 7.23 | 7.16 | 6.48 | 6.50 | – | – | – | – | – | – | – | – | inhibition at 10 µM (ACHN): 1.9%; inhibition at 10 µM (OVCAR-8): 0.63%; Selectivity ratio I/XII (hCA XII; Ki hCA I / Ki hCA XII): 5.59; Selectivity ratio II/XII (hCA XII; Ki hCA II / Ki hCA XII): 5.27; Selectivity ratio I/IX (hCA IX; Ki hCA I / Ki hCA IX): 4.83; Selectivity ratio II/IX (hCA IX; Ki hCA II / Ki hCA IX): 4.55
2 | O=C1Nc2ccccc2C1=CNc1ccc(C(=O)C=CNc2ccc(S(=O)(=O)Nc3ncccn3)cc2)cc1 [Compound 13b, 4-{[3-Oxo-3-(4-{[(2-oxoindolin-3-ylidene)methyl]amino}phenyl)prop-1-en-1-yl]amino}-N-(pyrimidin-2-yl)benzenesulfonamide] | 12.6 | – | – | 5.62 | 1.35 | 6.38 | 7.6 | < 5.00 | < 5.00 | < 5.00 | < 5.00 | 290 to 294 | 62.7 | 2.89 | 1.75 | 6.91 | 3.53 | 17.9 | 1.85 | inhibition at 10 µM (MDA-MB-231/ATCC): 0.12%; inhibition at 10 µM (RPMI-8226): 13.6%; inhibition at 10 µM (A498): 1.46%; inhibition at 10 µM (HL-60(TB)): 0.37%; inhibition at 10 µM (786-0): 3.85%
3 | O=C(Nc1ccc(NC=C2C(=O)Nc3ccccc32)cc1)Nc1ccc(S(=O)(=O)Nc2ncccn2)cc1 [Compound 15b, 4-{3-[4-({[2-Oxoindolin-3-ylidene]methyl}amino)phenyl]ureido}-N-(pyrimidin-2-yl)benzenesulfonamide] | 15 | 1.02 | 1.01 | 5.21 | 4.97 | 5.79 | 18.3 | < 5.00 | < 5.00 | < 5.00 | < 5.00 | > 300 | 49.1 | 2.05 | 1.23 | 7.81 | 72.8 | 3.55 | 0.02 | inhibition at 10 µM (HCT-116): 7.3%; inhibition at 10 µM (HCT-15): 2.59%; inhibition at 10 µM (EKVX): 1.92%; inhibition at 10 µM (NCI-H226): 3.3%; inhibition at 10 µM (PC-3): 5.91%
